Legend:
[1] = target: Hepatocyte growth factor receptor (Homo sapiens, UniProt P08581); assay: Inhibition of phosphorylation of c-Met in human MKN45 cells
[2] = target: T1, Macrophage-stimulating protein receptor (Homo sapiens, UniProt Q04912); assay: Inhibition of RON phosphorylation in human PC3 cells; type: cell-based, PC-3
MDA-MB-231 = assay: Antiproliferative activity against human MDA-MB-231 cells by MTT assay; type: functional, cell-based
[3] = target: T1, Macrophage-stimulating protein receptor; assay: Inhibition of RON phosphorylation in human HT29 cells; type: cell-based, HT-29
A549 = assay: Antiproliferative activity against human A549 cells by MTT assay; type: functional, cell-based
[4] = target: T1, Macrophage-stimulating protein receptor; assay: Inhibition of RON (unknown origin) kinase domain by enzymatic assay

T1 sequence (Q04912 25-304 limits assumed): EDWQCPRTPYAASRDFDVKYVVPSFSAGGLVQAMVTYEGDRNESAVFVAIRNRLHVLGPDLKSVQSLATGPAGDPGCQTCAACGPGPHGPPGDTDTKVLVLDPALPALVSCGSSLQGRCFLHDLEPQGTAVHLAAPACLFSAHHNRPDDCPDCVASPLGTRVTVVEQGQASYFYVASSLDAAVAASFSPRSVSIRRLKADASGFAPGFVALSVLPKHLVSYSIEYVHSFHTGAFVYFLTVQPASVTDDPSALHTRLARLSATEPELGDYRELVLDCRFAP
T1 sequence (Q04912 310-1400 limits assumed): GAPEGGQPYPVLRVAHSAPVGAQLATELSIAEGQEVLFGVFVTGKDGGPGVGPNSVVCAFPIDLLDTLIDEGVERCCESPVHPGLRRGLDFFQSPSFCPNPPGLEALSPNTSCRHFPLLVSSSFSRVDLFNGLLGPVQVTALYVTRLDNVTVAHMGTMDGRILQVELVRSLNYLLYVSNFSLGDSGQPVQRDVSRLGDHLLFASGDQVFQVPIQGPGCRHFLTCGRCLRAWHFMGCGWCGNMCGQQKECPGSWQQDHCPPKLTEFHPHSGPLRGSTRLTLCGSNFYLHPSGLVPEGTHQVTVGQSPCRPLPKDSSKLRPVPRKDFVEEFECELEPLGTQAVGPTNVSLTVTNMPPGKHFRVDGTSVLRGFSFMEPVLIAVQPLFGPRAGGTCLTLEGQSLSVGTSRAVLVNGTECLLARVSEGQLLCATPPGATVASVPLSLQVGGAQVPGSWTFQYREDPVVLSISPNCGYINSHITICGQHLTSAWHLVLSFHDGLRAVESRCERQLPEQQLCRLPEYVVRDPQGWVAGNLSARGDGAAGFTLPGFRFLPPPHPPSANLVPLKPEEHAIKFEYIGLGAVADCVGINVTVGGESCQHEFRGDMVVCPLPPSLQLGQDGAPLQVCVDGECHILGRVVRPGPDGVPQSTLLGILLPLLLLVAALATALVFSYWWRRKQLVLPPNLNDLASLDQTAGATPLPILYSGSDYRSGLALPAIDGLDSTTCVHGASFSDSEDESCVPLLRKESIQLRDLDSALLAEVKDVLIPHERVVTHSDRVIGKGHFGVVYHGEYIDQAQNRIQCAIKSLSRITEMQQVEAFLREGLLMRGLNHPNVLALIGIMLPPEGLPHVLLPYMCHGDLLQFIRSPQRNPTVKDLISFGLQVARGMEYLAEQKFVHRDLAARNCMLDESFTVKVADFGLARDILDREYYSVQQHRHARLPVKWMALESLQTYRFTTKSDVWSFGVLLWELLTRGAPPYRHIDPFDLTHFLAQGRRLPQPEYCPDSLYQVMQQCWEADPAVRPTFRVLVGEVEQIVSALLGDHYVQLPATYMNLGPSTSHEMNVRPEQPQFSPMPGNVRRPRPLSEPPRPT
Chain of Hepatocyte growth factor receptor (P08581 whole entry): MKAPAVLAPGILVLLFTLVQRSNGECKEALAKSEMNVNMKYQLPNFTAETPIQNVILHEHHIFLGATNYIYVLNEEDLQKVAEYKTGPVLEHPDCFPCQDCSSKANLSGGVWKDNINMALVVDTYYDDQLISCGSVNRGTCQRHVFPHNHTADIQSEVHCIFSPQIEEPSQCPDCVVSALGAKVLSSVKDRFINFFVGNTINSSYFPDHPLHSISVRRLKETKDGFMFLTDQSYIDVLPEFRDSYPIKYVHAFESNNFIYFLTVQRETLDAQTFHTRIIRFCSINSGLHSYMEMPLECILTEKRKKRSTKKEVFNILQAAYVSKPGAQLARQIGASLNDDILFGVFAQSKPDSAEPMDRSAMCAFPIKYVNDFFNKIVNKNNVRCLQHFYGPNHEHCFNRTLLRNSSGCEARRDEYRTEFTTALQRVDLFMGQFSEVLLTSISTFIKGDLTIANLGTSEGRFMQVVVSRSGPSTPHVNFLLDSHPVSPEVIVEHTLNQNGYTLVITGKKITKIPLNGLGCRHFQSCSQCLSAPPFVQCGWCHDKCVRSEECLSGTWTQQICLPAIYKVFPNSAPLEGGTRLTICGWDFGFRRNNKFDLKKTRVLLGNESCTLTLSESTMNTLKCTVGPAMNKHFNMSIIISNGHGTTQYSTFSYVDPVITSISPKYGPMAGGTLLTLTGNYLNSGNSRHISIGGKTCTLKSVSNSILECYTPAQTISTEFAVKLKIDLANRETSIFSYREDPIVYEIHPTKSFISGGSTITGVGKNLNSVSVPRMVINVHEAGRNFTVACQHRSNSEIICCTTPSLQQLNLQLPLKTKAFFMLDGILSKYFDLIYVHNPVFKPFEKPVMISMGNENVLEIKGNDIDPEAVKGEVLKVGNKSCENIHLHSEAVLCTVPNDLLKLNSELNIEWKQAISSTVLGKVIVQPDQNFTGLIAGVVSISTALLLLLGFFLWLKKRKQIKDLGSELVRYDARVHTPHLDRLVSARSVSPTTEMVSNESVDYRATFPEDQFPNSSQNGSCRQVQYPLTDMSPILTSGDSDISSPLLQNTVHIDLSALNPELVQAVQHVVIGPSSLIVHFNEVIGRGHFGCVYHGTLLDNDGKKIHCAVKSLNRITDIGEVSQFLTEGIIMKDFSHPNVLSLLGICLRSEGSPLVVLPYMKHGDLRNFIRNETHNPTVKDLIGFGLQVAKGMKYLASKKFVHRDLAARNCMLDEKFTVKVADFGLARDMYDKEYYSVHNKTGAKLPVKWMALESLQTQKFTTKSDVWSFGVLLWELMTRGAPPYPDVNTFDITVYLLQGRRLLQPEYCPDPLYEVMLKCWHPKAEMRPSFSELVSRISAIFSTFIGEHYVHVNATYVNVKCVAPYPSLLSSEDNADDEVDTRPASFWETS

SMILES | IC50 [1] [µM] | IC50 [2] [nM] | IC50 (MDA-MB-231) [nM] | IC50 [3] [nM] | IC50 (A549) [nM] | IC50 [4] [nM] | IC50 ([1]; mkn-45)
Cn1cnc(-c2cc3nccc(Oc4ccc(NC(=O)c5cnn(-c6ccccc6)c5C(F)(F)F)cc4F)c3s2)c1 | 6.87 | 30 | 100 | 30 | 100 | 12 | 
Cn1cnc(-c2cc3nccc(Oc4ccc(NC(=O)c5ccn(-c6ccccc6)c5C(F)(F)F)cc4F)c3s2)c1 |  |  |  |  |  |  | Not Active

From ChEMBL document CHEMBL3580568, “Design and synthesis of close analogs of LCRF-0004, a potent and selective RON receptor tyrosine kinase inhibitor” (Bioorg Med Chem Lett, 2015)
